8 compounds from ChEMBL document CHEMBL1126358, “New hexahydroxydiphenyl derivatives as potent inhibitors of HIV replication in H9 lymphocytes” (Bioorg Med Chem Lett, 1992) can be followed below.

Assay [1] concerns H9. Kind of assay: Concentration which inhibits uninfected cell growth of HIV by 50% (IC50>140 uM) in acutely infected H9 lymphocyte cells was determined. It counts as functional, cell-based. The following applies: Homo sapiens.
In assay [2] the test system is H9. Kind of assay: Concentration of compound which inhibits virus replication of HIV by 50% (EC50 of 10 uM) in acutely infected H9 lymphocyte cells was determined. It counts as functional, cell-based. As to conditions: Homo sapiens.

The structures appear in SMILES notation. pEC50, pIC50: −log10 of the molar value.

What is called pIC50 is the IC50 on a negative log10 scale, so that one unit is a factor of ten. Low readings indicate a high IC50, high ones a low IC50. What is called pEC50 is the negative decadic logarithm of the EC50, by convention in mol/L.

In the assay with H9 [1], `COc1c(OCc2ccccc2)c(OCc2ccccc2)cc(CBr)c1-c1c(CBr)cc(OCc2ccccc2)c(OCc2ccccc2)c1OC` had a pIC50 of 4.52. Moreover, in the assay with H9 [2], the pEC50 is 4.89.

In turn, `COc1c(OCc2ccccc2)c(OCc2ccccc2)cc(C=O)c1-c1c(C=O)cc(OCc2ccccc2)c(OCc2ccccc2)c1OC` showed a pIC50 with H9 [1] of 5.40. Besides, in the assay on H9 [2], the negative logarithm of the EC50 (pEC50) is 5.70.

With `OCc1cc(OCc2ccccc2)c(OCc2ccccc2)c(OCc2ccccc2)c1-c1c(CO)cc(OCc2ccccc2)c(OCc2ccccc2)c1OCc1ccccc1`, in the assay with H9 [1], the negative logarithm of the IC50 (pIC50) was less than 3.92. This compound also had a pEC50 in the assay on H9 [2] of less than 3.92.

As to `OCc1cc(OCc2ccccc2)c(OCc2ccccc2)c(O)c1-c1c(CO)cc(OCc2ccccc2)c(OCc2ccccc2)c1O`, the pIC50 in the assay with H9 [1] was 4.89. In the assay with H9 [2], this compound gave a pEC50 of 5.22.

`Cc1cn([C@H]2C[C@H](N=[N+]=[N-])[C@@H](CO)O2)c(=O)[nH]c1=O` [ZIDOVUDINE]: the pIC50 in the assay on H9 [1] is 2.70. The same compound had a pEC50 in the assay on H9 [2] of 7.40.

In turn, `BrCc1cc(OCc2ccccc2)c(OCc2ccccc2)c(OCc2ccccc2)c1-c1c(CBr)cc(OCc2ccccc2)c(OCc2ccccc2)c1OCc1ccccc1` had a pIC50 in the assay on H9 [1] of less than 4.00. For the same compound, the negative-log EC50 (pEC50) with H9 [2] was less than 4.00.

For `COc1c(OCc2ccccc2)c(OCc2ccccc2)cc(CO)c1-c1c(CO)cc(OCc2ccccc2)c(OCc2ccccc2)c1OC`, the pIC50 in the assay with H9 [1] is less than 3.85. In the assay on H9 [2], this compound showed a negative logarithm of the EC50 (pEC50) of 5.00.

As to `O=Cc1cc(OCc2ccccc2)c(OCc2ccccc2)c(OCc2ccccc2)c1-c1c(C=O)cc(OCc2ccccc2)c(OCc2ccccc2)c1OCc1ccccc1`, the pIC50 in the assay with H9 [1] was 4.15. Also, the negative logarithm of the EC50 (pEC50) in the assay with H9 [2] is 4.35.
